Marks after values point to notes of the source that are not given here.
Experiments:
[1] = tested on: mice; assay: sodium thiopental-induced sleeping time; assay type: in vivo
Method: The effect of the active components in fraction H of Table 3 (ACN 50%, 23-27) and that of the aqueous remaining solution (Table 3) were tested in mice by i.p. administration. The doses were 2 mg per mouse for fraction H and 5 mg per mouse for the aqueous remaining solution fraction B. A small amount of conventional anesthetic (30 mg/kg of thiopental sodium - Biochemie, GmbH, Kundl, Austria) was used to induce a slight sleeping condition in the mice which were monitored to detect any possible enhancement of the sleeping condition by the previous injection of the novel compounds.
Median (interquartile range) of sleeping time of mice given a sodium thiopental i.p. administration (30 mg/kg) 20 min after an i.p. injection of vehicle or 6-methylapigenin. The sleeping time was measured as the time spent between disappearance and reappearance of righting reflex. Table 8 - Effect in different behavioral tests of 6-methylapigenin (sedation tests)

[2] = tested on: BDZ-bs; assay: GABA-shift of [3H]-FNZ displacement curves; assay type: binding; details: for GABA-shift: [3H]-FNZ binding to cortical brain membranes in the presence or absence of 100 µM GABA, n= 3
[3] = tested on: male Swiss mice; assay: spontaneous locomotor activity (Opto-Varimex apparatus); assay type: in vivo; details: for Locomotor Activity Total / Locomotor Activity ambulatory: 4 mg/kg, decrement relative to vehicle values; for Locomotor Total activity: ambulatory locomotor activity
Method: (§1) In all in vivo tests male Swiss mice of 28-30 g were used. The animals were injected i.p. with vehicle, or a solution of the drug, or fraction, 20 min before the assay. The assays were performed in mice i.p. injected with an amount of each fraction equivalent to that obtained from 1 g of dry Valeriana wallichii powder (see Table 3), 20 min before the test. In the case of the remaining aqueous solution (see Figure 2) it was injected at the maximum tolerated dose which was equivalent to that obtained from only 12 mg of dry Valeriana wallichii powder. This low dosage explains the absence of activity recorded in Table 4.
(§2) The following tests were used: spontaneous ambulatory activity counts in an Opto-Varimex apparatus that optically detects and measures locomotor activity; the Hole-board, a well-known test to assay for the sedative behavior (6); and the horizontal wire test to detect myorelaxation as described in detail in the literature (7).
(§3) Mean ±SEM of locomotor activity registered during 5 min session in an Opto-Varimex apparatus and performance of mice in the holeboard test. Wire test was performed after two trials and was registered the number of animals grasped the wire for 3 seconds. Vehicle or 6-methylapigenin were ip administered 20 min before tests. No significant differences were observed using the Student's t test at p>0.05. Table 9 - Anxiolytic effect of 6-methylapigenin measured in the plus-maze test

[4] = tested on: male Swiss mice; assay: Hole-board test (sedation); assay type: in vivo; details: for Hole-board test N° of Head- dips / Hole-board test N° of rearings / Hole-board test Time head dipping: mice
[5] = tested on: male Swiss mice; assay: horizontal wire test (myorelaxation); assay type: in vivo
Method: as §1, §2, §3

[6] = tested on: BDZ-bs (benzodiazepine binding site in GABAA brain receptor); assay: BDZ-bs binding assay ([3H]-FNZ binding to cerebral cortical membranes); set-up: species or system rat
Method: In vitro binding assays were carried out with various receptors as well as in vivo tests for sedative activity on the various fractions A-K recovered in Example 1 using the known procedures described in detail in the literature for the following receptors: BDZ-bs (benzodiazepine binding site in GABAA brain receptor) (1); 5-hydroxytriptamine-type 1A (5HT1A) (2); 5HT2 (3); AMPA glutamatergic (4); adenosine 1 (5) . In vivo sedation activity was measured by the Hole-board test (6).
The presence of BDZ-bs ligands in the fractions obtained at the end of the preparative fractionation scheme described in Figure 2 was checked by the BDZ-bs binding assay as described in Example 2.
No BDZ-bs ligands were found in the eluates obtained with 20 %, 30 % and 80 % ACN, but they were present in those obtained with 40 % and 50 % ACN. The BDZ-bs ligands distribution obtained is shown in Figure 3 in which the percentage of binding inhibition of [^3H]-FNZ to rat cerebral cortical membranes (averages of duplicated measurements), is shown for 0.05 mL aliquots of the indicated fractions. (Note: Fractions 1-5, 6-10 and 28-32 were collected in bulk; 40 % and 50 % eluates were collected as separate 100 mL fractions. The arrows inside the graph indicate the pools made). […]

[7] = tested on: mice; assay: elevated plus-maze test (anxiolysis); assay type: in vivo; details: for % open arm entries / % time spent in open arms / arm entries: mice, mean ±SEM
Source text: Anti-anxiety as discussed in the present application is based on the fear that mice have for open spaces i.e. the elevated plus-maze assay.

[8] = mice, 1 mg/kg i.p. 20 min before sodium thiopental 30mg/kg i.p. (Table 20)
[9] = mice, hesperidin 2 mg/kg i.p. 20 min before sodium thiopental 30mg/kg i.p. (Table 20)
[10] = 4 mg/kg, decrement relative to vehicle values
[11] = mice, 4 mg/kg i.p. 20 min before sodium thiopental 30 mg/kg i.p. (Table 10)
[12] = mice, 9 mg/kg i.p. 20 min before sodium thiopental 30 mg/kg i.p. (Table 10)
[13] = 10 mg/kg ip 20 min before test, 5 min session, mean ±SEM
[14] = 10 mg/kg ip 20 min before test, mean ±SEM
[15] = 0.3 mg/kg ip 20 min before test

COc1ccc(-c2cc(=O)c3c(O)cc(O[C@@H]4O[C@H](CO[C@@H]5O[C@@H](C)[C@H](O)[C@@H](O)[C@H]5O)[C@@H](O)[C@H](O)[C@H]4O)cc3o2)cc1 [Linarin, 7-[[6-O-(6-deoxy-α-L-mannopyranosyl)-β-D-glucopyranosyl]oxy]-5-hydroxy-2-(4-methoxyphenyl)-4H-benzopyran-4-one] was tested, and the “dose at which hypnotic activity is evident” value ([1]; estimated from Table 16) was 7 mg/kg, the “Sleeping time Median” value ([1]; mice, 4 mg/kg i.p. 20 min before sodium thiopental 30 mg/kg i.p. (Table 16)) was 0 min and the “Sleeping time Median (min)” value ([1]; mice, 7 mg/kg i.p. 20 min before sodium thiopental 30 mg/kg i.p. (Table 16)) was 30** min. The “Sleeping time Median (min)” value ([1]; mice, 14 mg/kg i.p. 20 min before sodium thiopental 30 mg/kg i.p. (Table 16)) was 30** min and the “Sleeping time Median” value ([1]; mice, linarin 4 mg/kg i.p. 20 min before sodium thiopental 30 mg/kg i.p. (Table 17)) was 0 min.

For O=c1cc(-c2ccccc2)oc2cc(O)cc(O)c12 [Chrysin, reference compound], the “Sleeping time Median” value [1, 8] was 0 min.

With COc1ccc([C@@H]2CC(=O)c3c(O)cc(O[C@@H]4O[C@H](CO[C@@H]5O[C@@H](C)[C@H](O)[C@@H](O)[C@H]5O)[C@@H](O)[C@H](O)[C@H]4O)cc3O2)cc1O [Hesperidin] the “Sleeping time Median” value ([1]; mice, 4 mg/kg (Table 13)) was 20 min, the “Sleeping time Median” value [1, 9] was 3.5 min and the “Sleeping time Median (min)” value [1, 9] was 3.5* min.

For CC1=C2[C@H](/C=C(\C)C(=O)O)CC[C@@H](C)[C@H]2CC1 [Valerenic acid, reference compound], the “Sleeping time Median” value ([1]; mice, valerenic acid 5 mg/kg (Table 18)) was 0 min, the “Sleeping time Median” value ([1]; mice, valerenic acid 5 mg/kg i.p. 20 min before sodium thiopental 30 mg/kg i.p. (Table 17)) was 0 min and the “Sleeping time Median” value ([1]; mice, valerenic acid 15mg/kg i.p. 20 min before sodium thiopental 30 mg/kg i.p. (Table 17)) was 0 min.

In the case of O=c1cc(-c2ccc(O)cc2)oc2cc(O)cc(O)c12 [Apigenin, reference compound], the “Sleeping time Median” value [1, 8] is reported as 0 min and the “Sleeping time Median (min)” value ([1]; mice, 1 mg/kg i.p. 20 min before sodium thiopental 30mg/kg i.p. (Table 20), listed as apigenin) is reported as “do not produce any sleeping time”.

Molecule CN1C(=O)CN=C(c2ccccc2)c2cc(Cl)ccc21 [diazepam, reference compound] has a GABA-shift [2] of 2.00 ± 0.10.

With COc1ccc([C@@H]2CC(=O)c3c(O)cc(O[C@@H]4O[C@H](CO[C@@H]5O[C@@H](C)[C@H](O)[C@@H](O)[C@H]5O)[C@@H](O)[C@H](O)[C@H]4O)cc3O2)cc1O [Valeriana hesperidin, Hesperetin 7-rhamnoglucoside; 4H-1-Benzopyran-4-one, 7-[[6-O-(6-deoxy-alpha-L-mannopyranosyl)-beta-D-glucopyranosyl]oxy]-2,3-dihydro-5-hydroxy-2-(3-hydroxy-4-methoxyphenyl)-, (S)-] the “Locomotor Activity Total” value [3] was -55** percentage, the “Locomotor Activity ambulatory” value [3] was -58** percentage and the “Hole-board test N° of Head- dips” value [4, 10] was -74** percentage. The “Hole-board test N° of rearings” value [4, 10] was -58** percentage, the “Hole-board test Time head dipping” value [4, 10] was -81## percentage and the “Sleeping time Median” value ([1]; mice, 1 mg/kg i.p. 20 min before sodium thiopental 30 mg/kg i.p. (Table 10)) was 0.583 min. For the same molecule, the “Sleeping time Median (s)” value ([1]; mice, 2 mg/kg i.p. 20 min before sodium thiopental 30 mg/kg i.p. (Table 10)) was 197* s, the “Sleeping time Median (s)” value [1, 11] was 1290** s and the “Sleeping time Median (s)” value [1, 12] was 1800** s. The “Sleeping time Median (s)” value ([1]; mice, hesperidin 2 mg/kg i.p. 20 min before sodium thiopental 30 mg/kg i.p. (Table 12)) was 179* s, the “Sleeping time Median (s)” value ([1]; mice, i.p., Dose 3 (unit not given), 20 min before sodium thiopental 30 mg/kg i.p.) was 500** s and the Wire ([5]; 4 mg/kg) was 0 percentage.

For Cc1c(O)cc2oc(-c3ccc(O)cc3)cc(=O)c2c1O (single isomer, unassigned) [6-methylapigenin], the GABA-shift [2] was 1.6-2.0, the “behaviour at the BDZ-bs from GABA-shift” value ([2]; presence or absence of 100 µM GABA) was “behaves as an agonist” and the “Locomotor Total activity” value ([3]; 0.3 mg/kg ip 20 min before test, 5 min session, mean ±SEM) was 410±36. For the same molecule, the “Locomotor Total activity” value ([3]; 1 mg/kg ip 20 min before test, 5 min session, mean ±SEM) was 463±64, the Ambulatory locomotor activity [3, 13] was 395±43 and the “Total Locomotor Activity” value [3, 13] was 552±55. For the same molecule, the “Hole-board test N° of Head- dips” value [4, 14] was 7±0.5, the “Hole-board test N° of rearings” value [4, 14] was 28±3 and the “Hole-board test Time head dipping” value [4, 14] was 10±1. The sedative effects ([4]; up to 10 mg/kg in mice) was “does not have sedative effects”, the “Sleeping time Median” value ([1]; mice, 6-methylapigenin 1mg/kg (Table 18)) was 0 min and the “Sleeping time Median” value ([1]; mice, 6-methylapigenin 1 mg/kg i.p. 20 min before sodium thiopental 30 mg/kg i.p. (Table 12)) was 0 min. The “Sleeping time (min) median values” ([1]; mice, i.p., 1 mg/kg, 20 min before sodium thiopental 30 mg/kg i.p. (Table 7)) was 0 min, the “effect on sleeping time” value ([1]; up to 1 mg/kg, mice receiving a sub-hypnotic dose of thiopental) was “does not affect the sleeping time” and the Wire ([5]; 10 mg/kg ip, number of animals that grasped the wire for 3 seconds) was 5/5. The “Scatchard analysis of saturation curves: type of interaction” value ([6]; [3H] FNZ saturation curves, decline in apparent affinity without changes in Bmax) was “competitive interaction”, the Ki ([6]; n= 5 (ligand 1), n= 3 (ligand 2)) was 500 ± 170 nM and the “anxiolytic properties in the plus-maze assay” value ([7]; dose of 1 mg/kg in mice) was “clear anxiolytic properties”. The “% open arm entries” value [7, 15] was 48±4%, the “% time spent in open arms” value [7, 15] was 42±4% and the arm entries [7, 15] was 17±2. For the same molecule, the “% open arm entries” value ([7]; 1 mg/kg ip 20 min before test) was 60±6 %, the “% time spent in open arms” value ([7]; 1 mg/kg ip 20 min before test) was 58±5 % and the arm entries ([7]; 1 mg/kg ip 20 min before test) was 14±2.

With COc1ccc([C@@H]2CC(=O)c3c(O)cc(O[C@@H]4O[C@H](CO[C@@H]5O[C@@H](C)[C@H](O)[C@@H](O)[C@H]5O)[C@@H](O)[C@H](O)[C@H]4O)cc3O2)cc1O [Citrus hesperidin, hesperidin, reference compound] the “Locomotor Activity Total” value [3] was -31 percentage, the “Locomotor Activity ambulatory” value [3] was -30 percentage and the “Hole-board test N° of Head- dips” value [4, 10] was -40 percentage. The “Hole-board test N° of rearings” value [4, 10] was -22 percentage, the “Hole-board test Time head dipping” value [4, 10] was -44 percentage and the “activity relative to the natural isomer from valeriana” value ([1]; estimated from Table 10, sleeping time in mice) was “approximately 60%”. The “Sleeping time Median (s)” value [1, 11] was 660* s, the “Sleeping time Median (s)” value [1, 12] was 1440** s and the Wire ([5]; 4 mg/kg) was 0 percentage.

— EP1503771B1, “SEDATIVE MATERIALS AND TREATMENTS” (University of Strathclyde, priority 2002, dated 2003)
